Source: patent publication US5998521A, “Aqueous fluoropolymer compositions and method of preparing the same” (3M Innovative Properties Company, priority 1996, dated 1999)

Tests used:
[1] = Surface tension and critical micelle concentration of aqueous surfactant solutions; assay type: physicochemical; conditions: deionized water; for Surf. Tens.: at the CMC
Description: Critical Micelle Concentration (CMC): The critical micelle concentration is defined as the concentration at which further surface tension is no longer lowered with increasing levels of surfactant. To determine CMC, surface tension is measured as a function of surfactant concentration using a K-12 Processor Tensiometer in conjunction with a 665 Dosimat automatic surfactant injection device (also commercially available from Kruss GmbH). Surface tension is then plotted vs. log concentration and the data points are connected. The resulting curve has a nearly horizontal flat portion at concentrations above the CMC and has a negative steep slope at concentrations below the CMC. The CMC is defined as the lowest surfactant concentration in the horizontal flat portion of the curve.
(§1) Then the critical micelle concentration (CMC) was determined for each surfactant.
as §1

[2] = Thermogravimetric analysis of neat perfluorocarboxylate salts; assay type: physicochemical; conditions: neat salt, nitrogen, 10° C./min
Source text: Thermal degradation measurements were made on a series of neat perfluorocarboxylate salts, including several α-branched open chain structures (Examples N2-N9), a primarily linear open chain structure (Example N10-Fluorad™ FC-143 Fluorochemical Surfactant, commercially available from 3M Company, St. Paul, Minn.), and a closed chain (i.e., cyclic) structure (Example N11--made by the electrochemical fluorination of benzoic acid and hydrolysis in the presence of KOH, as described in U.S. Pat. No. 2,567,011 (Diesslin et al.)).
The perfluorocarboxylate salts were tested using a Perkin-Elmer TGA 7 thermogravimetric analysis apparatus and a salt sample size of approximately 5 mg, a heating rate of 10° C./min, and a nitrogen gas flow rate of 40-45 mL/min. Using the TGA 7 software, the following temperatures were recorded: (1) the onset temperature of decomposition, (2) the temperature at which 50% of the sample weight was lost, and (3) the temperature at which 90% of the sample weight was lost.

Compound	Surf. Tens. ([1]; Table 3)	CMC ([1]; Table 3)	Surf. Tens. ([1]; Table 5)	CMC ([1]; Table 5)	further results
O=C(NCCOC(=O)C(F)(C(F)(F)F)C(F)(F)C(F)(F)C(F)(F)C(F)(F)C(F)(F)C(F)(F)F)c1cc[n+]([O-])cc1 (centres unmarked) [Example E11]	15.5 dynes/cm	1000 ppm	–	–	–
C[N+](C)([O-])CCCNC(=O)C(F)(C(F)(F)F)C(F)(F)C(F)(F)C(F)(F)C(F)(F)C(F)(F)F (centres unmarked) [Example E2, C5 F11 CF(CF3)CONH(CH2)3 N^+ (CH3)2 O^-]	17.5 dynes/cm	500 ppm	–	–	–
C[N+](C)(CCO)CCCNC(=O)C(F)(C(F)(F)F)C(F)(F)C(F)(F)C(F)(F)C(F)(F)C(F)(F)F (centres unmarked) [Example F3]	17.0 dynes/cm	1000 ppm	–	–	–
C[N+](C)(CCCNC(=O)C(F)(C(F)(F)F)C(F)(F)C(F)(F)C(F)(F)C(F)(F)C(F)(F)C(F)(F)C(F)(F)F)CCC(=O)[O-] (centres unmarked) [Example K1, C7 F15 CF(CF3)CONH(CH2)3 N^+ (CH3)2C2 H4 COO^-]	16.6 dynes/cm	125 ppm	–	–	–
O=C(O)C(F)(C(F)(F)F)C(F)(F)C(F)(F)C(F)(F)C(F)(F)C(F)(F)C(F)(F)C(F)(F)F (centres unmarked) [Example M26, C7 F15 CF(CF3)COO^- Na^+]	–	–	19.4 dynes/cm	3000 ppm	–
C[N+](C)([O-])CCCN(CCO)C(=O)C(F)(C(F)(F)F)C(F)(F)C(F)(F)C(F)(F)C(F)(F)C(F)(F)C(F)(F)C(F)(F)F (centres unmarked) [Example E8, C7 F15 CF(CF3)CON(C2 H4 OH)(CH2)3 N^+ (CH3)2 O^-]	16.6 dynes/cm	125 ppm	–	–	–
C8 F17 CF(CF3)CO(OCH2 CH2)16 OCH3 [Example J1]	22 dynes/cm	150 ppm	–	–	–
O=C(OCCc1cccc[n+]1[O-])C(F)(C(F)(F)F)C(F)(F)C(F)(F)C(F)(F)C(F)(F)C(F)(F)C(F)(F)F (centres unmarked) [Example E12]	18.3 dynes/cm	8000 ppm	–	–	–
O=C([O-])CC[N+]1(CCCNC(=O)C(F)(C(F)(F)F)C(F)(F)C(F)(F)C(F)(F)C(F)(F)C(F)(F)C(F)(F)C(F)(F)F)CCOCC1 (centres unmarked) [Example K3]	19.2 dynes/cm	–	–	–	–
O=C(OCCc1cccc[n+]1[O-])C(F)(C(F)(F)F)C(F)(F)C(F)(F)C(F)(F)C(F)(F)C(F)(F)C(F)(F)C(F)(F)F (centres unmarked) [Example E13]	15.0 dynes/cm	6000 ppm	–	–	–
C[n+]1ccc(C(=O)NCCOC(=O)C(F)(C(F)(F)F)C(F)(F)C(F)(F)C(F)(F)C(F)(F)C(F)(F)C(F)(F)C(F)(F)F)cc1 (centres unmarked) [Example F1]	15.0 dynes/cm	500 ppm	–	–	–
O=C(O)C(F)(C(F)(F)F)C(F)(F)C(F)(F)C(F)(F)C(F)(F)C(F)(F)F (centres unmarked) [Example M21, C5 F11 CF(CF3)COO^- K^+]	–	–	22.5 dynes/cm	> 10000 ppm	Temperature for: 50% loss ([2]; listed as N9): 178 °C; Temperature for: 90% loss ([2]; listed as N9): 188 °C; Temperature for: Onset ([2]; listed as N9): 167 °C
O=C(O)C(F)(C(F)(F)F)C(F)(F)C(F)(F)C(F)(F)C(F)(F)C(F)(F)C(F)(F)C(F)(F)C(F)(F)F (centres unmarked) [Example M17, C8 F17 CF(CF3)COO^- H4 N^+]	–	–	14.7 dynes/cm	2300 ppm	Temperature for: 50% loss [2]: 162 °C; Temperature for: 90% loss [2]: 184 °C; Temperature for: Onset [2]: 142 °C
C[N+](C)([O-])CCCNC(=O)C(F)(C(F)(F)F)C(F)(F)C(F)(F)C(F)(F)C(F)(F)C(F)(F)C(F)(F)F (centres unmarked) [Example E3, C6 F13 CF(CF3)CONH(CH2)3 N^+ (CH3)2 O^-]	16.6 dynes/cm	100 ppm	–	–	–
C[n+]1ccc(C(=O)NCCOC(=O)C(F)(C(F)(F)F)C(F)(F)C(F)(F)C(F)(F)C(F)(F)C(F)(F)C(F)(F)F)cc1 (centres unmarked) [Example F2]	15.5 dynes/cm	30 ppm	–	–	–
O=C(O)C(F)(C(F)(F)F)C(F)(F)C(F)(F)C(F)(F)C(F)(F)C(F)(F)F (centres unmarked) [Example M15, C5 F11 CF(CF3)COO^- H4 N^+]	–	–	22.1 dynes/cm	> 10000 ppm	Temperature for: 50% loss ([2]; listed as N2): 178 °C; Temperature for: 90% loss ([2]; listed as N2): 188 °C; Temperature for: Onset ([2]; listed as N2): 166 °C
O=C(O)C(F)(C(F)(F)C(F)(F)F)C(F)(F)C(F)(F)C(F)(F)C(F)(F)C(F)(F)C(F)(F)F (centres unmarked) [Example M19, C6 F13 CF(C2 F5)COO^- H4 N^+]	–	–	–	–	Temperature for: 50% loss [2]: 171 °C; Temperature for: 90% loss [2]: 188 °C; Temperature for: Onset [2]: 153 °C
CN(C)CCCN(CCCN(C)C)C(=O)C(F)(C(F)(F)F)C(F)(F)C(F)(F)C(F)(F)C(F)(F)C(F)(F)C(F)(F)C(F)(F)F (centres unmarked) [Example F9, C7 F15 CF(CF3)CON[C3 H6 N^+ (CH3)2 H]2 2[-OOCCH3]]	22.0 dynes/cm	1000 ppm	–	–	–

Compound	Surf. Tens. ([1]; Table 3)	CMC ([1]; Table 3)	Surf. Tens. ([1]; Table 5)	CMC ([1]; Table 5)	further results
C[N+](C)(CCO)CCCNC(=O)C(F)(C(F)(F)F)C(F)(F)C(F)(F)C(F)(F)C(F)(F)C(F)(F)C(F)(F)C(F)(F)F (centres unmarked) [Example F4]	19.0 dynes/cm	300 ppm	–	–	–
C[N+](C)(CCCN(CCC[N+](C)(C)CCC(=O)[O-])C(=O)C(F)(C(F)(F)F)C(F)(F)C(F)(F)C(F)(F)C(F)(F)C(F)(F)C(F)(F)C(F)(F)F)CCC(=O)[O-] (centres unmarked) [Example K4]	23.6 dynes/cm	100 ppm	–	–	–
O=C(O)C(F)(C(F)(F)F)C(F)(F)C(F)(F)C(F)(F)C(F)(F)C(F)(F)F (centres unmarked) [Example M28, C5 F11 CF(CF3)COO^- Na^+]	–	–	–	–	Temperature for: 50% loss ([2]; listed as N8): 250 °C; Temperature for: 90% loss ([2]; listed as N8): 263 °C; Temperature for: Onset ([2]; listed as N8): 236 °C
O=C(NCCOC(=O)C(F)(C(F)(F)F)C(F)(F)C(F)(F)C(F)(F)C(F)(F)C(F)(F)C(F)(F)C(F)(F)F)c1cc[n+]([O-])cc1 (centres unmarked) [Example E10]	14.5 dynes/cm	400 ppm	–	–	–
O=C(O)C(F)(C(F)(F)F)C(F)(F)C(F)(F)C(F)(F)C(F)(F)C(F)(F)C(F)(F)C(F)(F)F (centres unmarked) [Example M20, C7 F15 CF(CF3)COO^- H3 N^+ C2 H4 OH]	–	–	15.0 dynes/cm	500 ppm	–
O=C(O)C(F)(C(F)(F)F)C(F)(F)C(F)(F)C(F)(F)C(F)(F)C(F)(F)C(F)(F)C(F)(F)F (centres unmarked) [Example M23, C7 F15 CF(CF3)COO^- K^+]	–	–	15.0 dynes/cm	2500 ppm	–
O=C(O)C(F)(C(F)(F)F)C(F)(F)C(F)(F)C(F)(F)C(F)(F)C(F)(F)C(F)(F)F (centres unmarked) [Example M25, C6 F13 CF(CF3)COO^- Na^+]	–	–	19.8 dynes/cm	10000 ppm	–
C6 F13 CF(CF3)CON(C3 H6 SO3^-)(CH2)3 N^+ (CH3)2 H [Example K2]	20.3 dynes/cm	500 ppm	–	–	–
O=C(O)C1(F)C(F)(F)C(F)(F)C(F)(F)C(F)(F)C1(F)F [U.S. Pat. No. 2,567,011, reference compound]	–	–	–	–	Temperature for: 50% loss [2]: 110 °C; Temperature for: 90% loss [2]: 120 °C; Temperature for: Onset [2]: 100 °C
O=C(O)C(F)(C(F)(F)F)C(F)(F)C(F)(F)C(F)(F)C(F)(F)C(F)(F)C(F)(F)C(F)(F)F (centres unmarked) [Example M30, C7 F15 CF(CF3)COO^- 1/2[H3 N^+ C2 H4 NHC2 H4 N^+ H3]]	–	–	16.2 dynes/cm	3000 ppm	–
O=C(NCCC[N+]1(CCO)CCOCC1)C(F)(C(F)(F)F)C(F)(F)C(F)(F)C(F)(F)C(F)(F)C(F)(F)C(F)(F)C(F)(F)F (centres unmarked) [Example F5]	20.8 dynes/cm	–	–	–	–
O=C(O)C(F)(C(F)(F)F)C(F)(F)C(F)(F)C(F)(F)C(F)(F)C(F)(F)C(F)(F)C(F)(F)C(F)(F)F (centres unmarked) [Example M24, C8 F17 CF(CF3)COO^- K^+]	–	–	16.4 dynes/cm	3000 ppm	–
O=C(O)C(F)(C(F)(F)F)C(F)(F)C(F)(F)C(F)(F)C(F)(F)C(F)(F)C(F)(F)C(F)(F)F (centres unmarked) [Example M27, C7 F15 CF(CF3)COO^- Li^+]	–	–	24.1 dynes/cm	3500 ppm	–
C[N+](C)([O-])CCCNC(=O)C(F)(C(F)(F)F)C(F)(F)C(F)(F)C(F)(F)C(F)(F)C(F)(F)C(F)(F)C(F)(F)F (centres unmarked) [Example E1, C7 F15 CF(CF3)CONH(CH2)3 N^+ (CH3)2 O^-]	16.3 dynes/cm	20 ppm	–	–	–
C[N+](C)([O-])CCCNC(=O)C(F)(C(F)(F)F)C(F)(F)C(F)(F)C(F)(F)C(F)(F)C(F)(F)C(F)(F)C(F)(F)C(F)(F)F (centres unmarked) [Example E4, C8 F17 CF(CF3)CONH(CH2)3 N^+ (CH3)2 O^-]	16.5 dynes/cm	20 ppm	–	–	–
C[N+](C)([O-])CCCNC(=O)C(F)(C(F)(F)F)C(F)(F)C(F)(F)C(F)(F)C(F)(F)C(F)(F)C(F)(F)C(F)(F)C(F)(F)C(F)(F)C(F)(F)F (centres unmarked) [Example E5, C10 F21 CF(CF3)CONH(CH2)3 N^+ (CH3)2 O^-]	17.1 dynes/cm	500 ppm	–	–	–
O=C(O)C(F)(C(F)(F)F)C(F)(F)C(F)(F)C(F)(F)C(F)(F)C(F)(F)C(F)(F)F (centres unmarked) [Example M22, C6 F13 CF(CF3)COO^- K^+]	–	–	17.5 dynes/cm	10000 ppm	–
